Source: patent US8858967B2, “Dermatological cream-gels containing avermectin compounds” (Galderma S.A., priority 2004, dated 2014)

Assay: Maximum solubility of ivermectin in solvents
Format: physicochemical
Description: By way of example of a solvent and/or a propenetrating agent for the ivermectin active agent, representative are propylene glycol, alcohols such as ethanol, isopropanol, butanol, benzyl alcohol, N-methyl-2-pyrrolidone or DMSO, polysorbate 80; phenoxyethanol, and mixtures thereof.

Ivermectin
Maximum % solubility of ivermectin in the solvent under consideration (weight/weight) (solvent N-methyl-2-pyrrolidone): 58.13 % (weight/weight)
Maximum % solubility of ivermectin in the solvent under consideration (weight/weight) (solvent propylene glycol/oleic acid (4 parts/2 parts)): 27.31 % (weight/weight)
Maximum % solubility of ivermectin in the solvent under consideration (weight/weight) (solvent propylene glycol/polysorbate 80/phenoxyethanol (4 parts/1 part/1 part)): 28.63 % (weight/weight)
